Results as given in US7642253B2, “Histone deacetylase inhibitors” (Takeda San Diego, Inc., priority 2005, dated 2010).

Molecular target: HDAC2 (Homo sapiens, UniProt Q92769)
Experiment: HDAC2 fluorescence inhibition assay (tBoc-Lys(Ac)-AMC)

Sequence of HDAC2 (Q92769 with tags, fused parts or gaps): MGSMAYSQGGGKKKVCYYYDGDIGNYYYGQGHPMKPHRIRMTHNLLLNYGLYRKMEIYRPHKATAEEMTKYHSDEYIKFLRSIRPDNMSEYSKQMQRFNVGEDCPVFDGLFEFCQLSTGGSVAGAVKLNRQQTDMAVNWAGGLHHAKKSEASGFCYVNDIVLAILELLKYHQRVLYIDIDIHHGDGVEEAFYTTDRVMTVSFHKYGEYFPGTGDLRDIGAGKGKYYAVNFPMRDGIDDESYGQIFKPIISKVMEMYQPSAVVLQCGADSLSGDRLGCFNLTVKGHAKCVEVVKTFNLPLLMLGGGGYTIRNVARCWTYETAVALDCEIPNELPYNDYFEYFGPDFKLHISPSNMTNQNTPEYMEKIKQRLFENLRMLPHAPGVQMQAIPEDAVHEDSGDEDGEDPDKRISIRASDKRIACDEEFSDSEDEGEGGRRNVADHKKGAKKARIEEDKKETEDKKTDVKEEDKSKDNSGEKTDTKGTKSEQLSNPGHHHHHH

IC50	Structure (SMILES)
< 50 nM	Nc1ccccc1NC(=O)c1ccc(CN2C(=O)Nc3ccccc3S2(=O)=O)cc1 [Example 1, N-(2-Amino-phenyl)-4-(1,1,3-trioxo-3,4-dihydro-1H-1λ^6-benzo[1,2,4]thiadiazin-2-ylmethyl)-benzamide]
100 to 500 nM	NC1=NS(=O)(=O)c2ccccc2N1Cc1ccc(C(=O)Nc2ccccc2N)cc1 [Example 2, 4-(3-Amino-1,1-dioxo-1H-1λ^6-benzo[1,2,4]thiadiazin-4-ylmethyl)-N-(2-amino-phenyl)-benzamide]
100 to 500 nM	Nc1ccccc1NC(=O)c1ccc(CN2C(=O)NCc3ccccc32)cc1 [Example 3, N-(2-aminophenyl)-4-((2-oxo-3,4-dihydroquinazolin-1(2H),-yl)methyl)benzamide]
< 50 nM	Nc1ccccc1NC(=O)c1ccc(CN2C(=S)Nc3ccccc3S2(=O)=O)cc1 [Example 4, N-(2-Amino-phenyl)-4-(1,1-dioxo-3-thioxo-3,4-dihydro-1H-1λ^6-benzo[1,2,4]thiadiazin-2-ylmethyl)-benzamide]
100 to 500 nM	CSC1=Nc2ccccc2S(=O)(=O)N1Cc1ccc(C(=O)Nc2ccccc2N)cc1 [Example 5, N-(2-Amino-phenyl)-4-(3-methylsulfanyl-1,1-dioxo-1H-1λ^6-benzo[1,2,4]thiadiazin-2-ylmethyl)-benzamide]
100 to 500 nM	CNC1=Nc2ccccc2S(=O)(=O)N1Cc1ccc(C(=O)Nc2ccccc2N)cc1 [Example 6, N-(2-Amino-phenyl)-4-(3-methylamino-1,1-dioxo-1H-1λ^6-benzo[1,2,4]thiadiazin-2-ylmethyl)-benzamide]
50 to 100 nM	NC1=Nc2ccccc2S(=O)(=O)N1Cc1ccc(C(=O)Nc2ccccc2N)cc1 [Example 7, 4-(3-Amino-1,1-dioxo-1H-1λ^6-benzo[1,2,4]thiadiazin-2-ylmethyl)-N-(2-amino-phenyl)-benzamide]
100 to 500 nM	Nc1ccccc1NC(=O)c1ccc(Cn2c(=O)ncc3ccccc32)cc1 [Example 8, N-(2-aminophenyl)-4-((2-oxoquinazolin-1(2H),-yl)methyl)benzamide]
100 to 500 nM	CCSC1=Nc2ccccc2S(=O)(=O)N1Cc1ccc(C(=O)Nc2ccccc2N)cc1 [Example 9, N-(2-Amino-phenyl)-4-(3-ethylsulfanyl-1,1-dioxo-1H-1λ^6-benzo[1,2,4]thiadiazin-2-ylmethyl)-benzamide]
< 50 nM	COc1ccc2c(c1)NC(=O)N(Cc1ccc(C(=O)Nc3ccccc3N)cc1)S2(=O)=O [Example 10, N-(2-Amino-phenyl)-4-(6-methoxy-1,1,3-trioxo-3,4-dihydro-1H-1λ^6-benzo[1,2,4]thiadiazin-2-ylmethyl)-benzamide]
< 50 nM	Nc1ccccc1NC(=O)c1ccc(CN2C(=O)Nc3cc(C(F)(F)F)ccc3S2(=O)=O)cc1 [Example 11, N-(2-Amino-phenyl)-4-(1,1,3-trioxo-6-trifluoromethyl-3,4-dihydro-1H-1λ^6-benzo[1,2,4]thiadiazin-2-ylmethyl)-benzamide]
< 50 nM	COc1ccc2c(c1)NC(=S)N(Cc1ccc(C(=O)Nc3ccccc3N)cc1)S2(=O)=O [Example 12, N-(2-Amino-phenyl)-4-(6-methoxy-1,1-dioxo-3-thioxo-3,4-dihydro-1H-1λ^6-benzo[1,2,4]thiadiazin-2-ylmethyl)-benzamide]
50 to 100 nM	Nc1ccccc1NC(=O)c1ccc(CN2C(=S)Nc3cc(C(F)(F)F)ccc3S2(=O)=O)cc1 [Example 13, N-(2-Amino-phenyl)-4-(1,1-dioxo-3-thioxo-6-trifluoromethyl-3,4-dihydro-1H-1λ^6-benzo[1,2,4]thiadiazin-2-ylmethyl)-benzamide]
50 to 100 nM	COc1ccc2c(c1)N=C(SC)N(Cc1ccc(C(=O)Nc3ccccc3N)cc1)S2(=O)=O [Example 14, N-(2-Amino-phenyl)-4-(6-methoxy-3-methylsulfanyl-1,1-dioxo-1H-1λ6-benzo[1,2,4]thiadiazin-2-ylmethyl)-benzamide]
< 50 nM	CN1Cc2ccccc2N(Cc2ccc(C(=O)Nc3ccccc3N)cc2)C1=O [Example 15, N-(2-Amino-phenyl)-4-(3-methyl-2-oxo-3,4-dihydro-2H-quinazolin-1-ylmethyl)-benzamide]
> 500 nM	CSC1=Nc2cc(C(F)(F)F)ccc2S(=O)(=O)N1Cc1ccc(C(=O)Nc2ccccc2N)cc1 [Example 16, N-(2-Amino-phenyl)-4-(3-methylsulfanyl-1,1-dioxo-6-trifluoromethyl-1H-1λ6-benzo[1,2,4]thiadiazin-2-ylmethyl)-benzamide]
100 to 500 nM	Nc1ccccc1NC(=O)c1ccc(CN2C(=O)Nc3cc(F)ccc3S2(=O)=O)cc1 [Example 17, N-(2-Amino-phenyl)-4-(6-fluoro-1,1,3-trioxo-3,4-dihydro-1H-1λ^6-benzo[1,2,4]thiadiazin-2-ylmethyl)-benzamide]
< 50 nM	Nc1ccccc1NC(=O)c1ccc(CN2C(=S)Nc3cc(F)ccc3S2(=O)=O)cc1 [Example 18, N-(2-Amino-phenyl)-4-(6-fluoro-1,1-dioxo-3-thioxo-3,4-dihydro-1H-1λ^6-benzo[1,2,4]thiadiazin-2-ylmethyl)-benzamide]

IC50	Structure (SMILES)
< 50 nM	COc1ccc2c(c1)NC(=S)N(Cc1ccc(C(=O)Nc3cc(F)ccc3N)cc1)S2(=O)=O [Example 19, N-(2-Amino-5-fluoro-phenyl)-4-(6-methoxy-1,1-dioxo-3-thioxo-3,4-dihydro-1H-1λ^6-benzo[1,2,4]thiadiazin-2-ylmethyl)-benzamide]
< 50 nM	COc1ccc2c(c1)NC(=O)N(Cc1ccc(C(=O)Nc3cc(F)ccc3N)cc1)S2(=O)=O [Example 20, N-(2-Amino-5-fluoro-phenyl)-4-(6-methoxy-1,1,3-trioxo-3,4-dihydro-1H-1λ6-benzo[1,2,4]thiadiazin-2-ylmethyl)-benzamide]
< 50 nM	Nc1ccccc1NC(=O)c1ccc(CN2C(=O)Nc3ncc(Cl)cc3S2(=O)=O)cc1 [Example 21, N-(2-Amino-phenyl)-4-(7-chloro-1,1,3-trioxo-3,4-dihydro-1H-1λ^6-pyrido[2,3-e][1,2,4]thiadiazin-2-ylmethyl)-benzamide]
< 50 nM	Nc1ccc(F)cc1NC(=O)c1ccc(CN2C(=O)Nc3ccccc3S2(=O)=O)cc1 [Example 22, N-(2-Amino-5-fluoro-phenyl)-4-(1,1,3-trioxo-3,4-dihydro-1H-1λ^6-benzo[1,2,4]thiadiazin-2-ylmethyl)-benzamide]
< 50 nM	Nc1ccccc1NC(=O)c1ccc(CN2C(=O)Nc3ccc(Br)cc3S2(=O)=O)cc1 [Example 23, N-(2-Amino-phenyl)-4-(7-bromo-1,1,3-trioxo-3,4-dihydro-1H-1λ^6-benzo[1,2,4]thiadiazin-2-ylmethyl)-benzamide]
50 to 100 nM	Nc1ccccc1NC(=O)c1ccc(CN2C(=O)Nc3ccccc3S2(=O)=O)nc1 [Example 24, N-(2-Amino-phenyl)-6-(1,1,3-trioxo-3,4-dihydro-1H-1λ^6-benzo[1,2,4]thiadiazin-2-ylmethyl)-nicotinamide]
< 50 nM	Nc1ccccc1NC(=O)c1ccc(CN2C(=O)Nc3ccccc3S2(=O)=O)c(F)c1 [Example 25, N-(2-Amino-phenyl)-3-fluoro-4-(1,1,3-trioxo-3,4-dihydro-1H-1λ^6-benzo[1,2,4]thiadiazin-2-ylmethyl)-benzamide]
< 50 nM	Nc1ccccc1NC(=O)c1ccc(CN2C(=O)Nc3ccc(-c4ccsc4)cc3S2(=O)=O)cc1 [Example 26, N-(2-Amino-phenyl)-4-(1,1,3-trioxo-7-thiophen-3-yl-3,4-dihydro-1H-1λ^6-benzo[1,2,4]thiadiazin-2-ylmethyl)-benzamide]
< 50 nM	Nc1ccccc1NC(=O)c1ccc(CN2C(=O)Nc3ccc(-c4ccncc4)cc3S2(=O)=O)cc1 [Example 27, N-(2-Amino-phenyl)-4-(1,1,3-trioxo-7-pyridin-4-yl-3,4-dihydro-1H-1λ^6-benzo[1,2,4]thiadiazin-2-ylmethyl)-benzamide]
< 50 nM	Nc1ccccc1NC(=O)c1ccc(CN2C(=O)Nc3ccc(-c4cncnc4)cc3S2(=O)=O)cc1 [Example 28, N-(2-Amino-phenyl)-4-(1,1,3-trioxo-7-pyrimidin-5-yl-3,4-dihydro-1H-1λ^6-benzo[1,2,4]thiadiazin-2-ylmethyl)-benzamide]
< 50 nM	Nc1ccccc1NC(=O)c1ccc(CN2C(=O)Nc3ccc(-c4cccnc4)cc3S2(=O)=O)cc1 [Example 29, N-(2-Amino-phenyl)-4-(1,1,3-trioxo-7-pyridin-3-yl-3,4-dihydro-1H-1λ^6-benzo[1,2,4]thiadiazin-2-ylmethyl)-benzamide]
< 50 nM	Nc1ccccc1NC(=O)c1ccc(CN2C(=O)Nc3ccc(-c4ccco4)cc3S2(=O)=O)cc1 [Example 30, N-(2-Amino-phenyl)-4-(7-furan-2-yl-1,1,3-trioxo-3,4-dihydro-1H-1λ^6-benzo[1,2,4]thiadiazin-2-ylmethyl)-benzamide]
< 50 nM	Nc1ccccc1NC(=O)c1ccc(CN2C(=O)Nc3ccc(-c4cccs4)cc3S2(=O)=O)cc1 [Example 31, N-(2-Amino-phenyl)-4-(1,1,3-trioxo-7-thiophen-2-yl-3,4-dihydro-1H-1λ^6-benzo[1,2,4]thiadiazin-2-ylmethyl)-benzamide]
< 50 nM	Nc1ccccc1NC(=O)c1ccc(CN2C(=O)Nc3ccc(-c4ccoc4)cc3S2(=O)=O)cc1 [Example 32]
< 50 nM	CN1Cc2ccccc2N(Cc2ccc(C(=O)Nc3ccccc3N)cc2)C1=S [Example 33, N-(2-Amino-phenyl)-4-(3-methyl-2-thioxo-3,4-dihydro-2H-quinazolin-1-ylmethyl)-benzamide]
50 to 100 nM	Nc1ccccc1NC(=O)c1ccc(CN2C(=O)Nc3ccccc3S2(=O)=O)s1 [Example 34, 5-(1,1,3-Trioxo-3,4-dihydro-1H-1λ^6-benzo[1,2,4]thiadiazin-2-ylmethyl)-thiophene-2-carboxylic acid(2-amino-phenyl)-amide]
> 500 nM	Nc1ccccc1NC(=O)c1ccc(CN2C(=O)Nc3ccncc3S2(=O)=O)cc1 [Example 35, N-(2-Amino-phenyl)-4-(1,1,3-trioxo-3,4-dihydro-1H-1λ^6-pyrido[4,3-e][1,2,4]thiadiazin-2-ylmethyl)-benzamide]
